Assay results reported in BindingDB's records for patent US11938127 (Wayne State University, 2024).

Molecular target: T1, Cytochrome P450 1A2 (Homo sapiens, UniProt P05177)
T1 sequence (P05177 whole entry): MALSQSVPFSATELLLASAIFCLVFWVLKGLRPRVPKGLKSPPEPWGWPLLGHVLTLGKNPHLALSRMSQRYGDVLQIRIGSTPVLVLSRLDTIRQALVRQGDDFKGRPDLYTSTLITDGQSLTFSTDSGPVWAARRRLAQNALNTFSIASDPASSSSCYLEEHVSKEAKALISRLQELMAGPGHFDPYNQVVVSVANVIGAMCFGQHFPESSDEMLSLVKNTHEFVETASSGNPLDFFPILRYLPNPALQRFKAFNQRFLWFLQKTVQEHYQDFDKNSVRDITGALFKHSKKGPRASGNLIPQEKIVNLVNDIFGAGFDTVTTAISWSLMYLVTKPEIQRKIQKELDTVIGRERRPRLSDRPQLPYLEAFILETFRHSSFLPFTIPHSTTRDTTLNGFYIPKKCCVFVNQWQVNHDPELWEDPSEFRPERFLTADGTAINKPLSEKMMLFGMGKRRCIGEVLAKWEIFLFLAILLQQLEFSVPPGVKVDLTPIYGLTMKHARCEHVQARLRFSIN
Experiment: CYP1A2 Inhibition Assay
Experimental: The quenched samples were incubated at 4° C. for 10 min and centrifuged at 4° C. for 10 min.

IC50: 2920 nM
Structure (SMILES): CC(C)(C)CN1c2cccc(O)c2C(=O)CC1c1cccc(O)c1 (stereo unspecified) [US11938127, Compound KCI838]
